Measurements published in ChEMBL document CHEMBL1146351, “Synthesis and biological evaluation of thiazolidine-2-one 1,1-dioxide as inhibitors of Escherichia coli beta-ketoacyl-ACP-synthase III (FabH)” (Bioorg Med Chem Lett, 2007).
In brackets after ≈: the same amount, converted by molar mass. Activity calls are given as the source filed them. No cut-off for these calls is given here.

What was measured:
[1] = target: T1, 3-oxoacyl-[acyl-carrier-protein] synthase 3 (Escherichia coli, UniProt C3TDZ2); assay: Inhibition of Escherichia coli FabH
T1 sequence (C3TDZ2 whole entry): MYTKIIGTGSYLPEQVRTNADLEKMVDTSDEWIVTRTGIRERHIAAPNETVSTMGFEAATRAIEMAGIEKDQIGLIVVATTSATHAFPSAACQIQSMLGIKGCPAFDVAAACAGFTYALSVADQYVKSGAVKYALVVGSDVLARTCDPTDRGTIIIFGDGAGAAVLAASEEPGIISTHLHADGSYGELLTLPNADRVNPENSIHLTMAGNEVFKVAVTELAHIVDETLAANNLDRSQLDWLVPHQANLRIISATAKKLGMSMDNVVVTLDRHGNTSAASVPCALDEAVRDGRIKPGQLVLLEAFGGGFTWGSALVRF

Plasmodium falciparum = assay: Antimalarial activity against Plasmodium falciparum D6; type: functional, organism-based
[2] = target: T2, Mycobacterial beta-ketoacyl-[acyl-carrier-protein] synthase III (Mycobacterium tuberculosis) (UniProt P9WNG3); assay: Inhibition of Mycobacterium tuberculosis FabH at 100 uM
T2 sequence (whole entry): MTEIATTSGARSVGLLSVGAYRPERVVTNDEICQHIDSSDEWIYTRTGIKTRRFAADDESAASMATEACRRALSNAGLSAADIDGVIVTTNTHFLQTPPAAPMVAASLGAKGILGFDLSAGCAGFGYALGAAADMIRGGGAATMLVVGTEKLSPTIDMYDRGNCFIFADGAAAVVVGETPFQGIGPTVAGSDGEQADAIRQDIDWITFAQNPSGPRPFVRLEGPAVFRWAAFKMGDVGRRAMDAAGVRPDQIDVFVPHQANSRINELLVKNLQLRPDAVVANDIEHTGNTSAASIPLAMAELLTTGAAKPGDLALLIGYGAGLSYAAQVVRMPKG

[3] = target: T3, Beta-ketoacyl-ACP-synthase III (Plasmodium falciparum) (UniProt O77078); assay: Inhibition of Plasmodium falciparum D6 KASIII at 100 uM
T3 sequence (whole entry): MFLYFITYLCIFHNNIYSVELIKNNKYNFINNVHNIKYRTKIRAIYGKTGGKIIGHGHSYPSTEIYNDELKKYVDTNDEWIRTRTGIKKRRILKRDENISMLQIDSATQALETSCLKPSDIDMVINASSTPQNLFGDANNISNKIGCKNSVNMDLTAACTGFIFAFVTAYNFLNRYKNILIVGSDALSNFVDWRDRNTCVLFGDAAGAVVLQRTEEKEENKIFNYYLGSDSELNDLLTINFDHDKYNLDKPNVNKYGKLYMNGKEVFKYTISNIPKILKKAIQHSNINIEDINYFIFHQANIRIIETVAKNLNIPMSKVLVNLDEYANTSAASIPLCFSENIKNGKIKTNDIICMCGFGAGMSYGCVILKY

Escherichia coli [4] = assay: Antibacterial activity against Escherichia coli; type: functional
Escherichia coli [5] = assay: Antibacterial activity against Escherichia coli expressing FabH; type: functional

In the case of S=C1SCCN1Cc1ccc(Oc2ccccc2)cc1, the IC50 [1] is reported as over 100 µM, the IC50 (Plasmodium falciparum) is reported as 55.6 µM and the Activity [2] is reported as “inactive”. The Activity [3] was “inactive”.
S=C1SCCN1CCc1ccccc1 was tested, and the IC50 [1] was over 100 µM, the IC50 (Plasmodium falciparum) was 55.5 µM and the Activity [2] was “inactive”. The Activity [3] was “inactive”.
For O=C1SCCN1Cc1ccc(Oc2ccccc2)cc1, the IC50 [1] was 10.9 µM, the IC50 (Plasmodium falciparum) was 67.1 µM and the Activity [2] was “inactive”. For the same molecule, the Activity [3] was “inactive”.
CCCN1CCSC1=S was tested, and the IC50 [1] was over 100 µM, the IC50 (Plasmodium falciparum) was over 100 µM and the Activity [2] was “inactive”. The Activity [3] was “inactive”.
In the case of O=C1SCCN1Cc1ccc(Oc2ccc(C3CCCC3)cc2)cc1, the IC50 [1] is reported as 14.4 µM, the IC50 (Plasmodium falciparum) is reported as 11.1 µM and the Activity [2] is reported as “inactive”. For the same molecule, the Activity [3] was “inactive”.
With O=C1SCCN1Cc1cccnc1 the IC50 [1] was 20.7 µM, the IC50 (Plasmodium falciparum) was 78.4 µM and the Activity [2] was “inactive”. For the same molecule, the Activity [3] was “inactive”.
For S=C1SCCN1Cc1ccc(Oc2ccc(C3CCCC3)cc2)cc1, the IC50 [1] was 17.7 µM, the IC50 (Plasmodium falciparum) was 5.3 µM and the Activity [2] was “inactive”. The Activity [3] was “inactive”.
With S=C1SCCN1Cc1ccccc1 the IC50 [1] was over 100 µM, the IC50 (Plasmodium falciparum) was 61.6 µM and the Activity [2] was “inactive”. For the same molecule, the Activity [3] was “inactive”.
In the case of O=C1N(CCc2ccccc2)CCS1(=O)=O, the IC50 [1] is reported as 1.9 µM, the IC50 (Plasmodium falciparum) is reported as 21.6 µM and the Activity [2] is reported as “inactive”. The MIC (Escherichia coli [4]) was 16.5 µg/mL (≈ 69 µM) and the Activity [3] was “inactive”.
With CN1CCSC1=S the IC50 [1] was over 100 µM, the IC50 (Plasmodium falciparum) was over 100 µM and the Activity [2] was “inactive”. The Activity [3] was “inactive”.
For O=C1N(Cc2ccc(Oc3ccccc3)cc2)CCS1(=O)=O, the IC50 [1] was 0.9 µM, the IC50 (Plasmodium falciparum) was 49.4 µM and the Activity [2] was “inactive”. The Activity [3] was “inactive”.
With CCCN1CCS(=O)(=O)C1=O the IC50 [1] was over 100 µM, the IC50 (Plasmodium falciparum) was over 100 µM and the Activity [2] was “inactive”. The Activity [3] was “inactive”.
With CN1CCS(=O)(=O)C1=O the IC50 [1] was over 100 µM, the IC50 (Plasmodium falciparum) was over 100 µM and the Activity [2] was “inactive”. The Activity [3] was “inactive”.
O=C1N(Cc2ccccc2)CCS1(=O)=O was tested, and the IC50 [1] was 1.1 µM, the IC50 (Plasmodium falciparum) was 67.6 µM and the Activity [2] was “inactive”. The MIC (Escherichia coli [4]) was 6.6 µg/mL (≈ 29.3 µM), the Activity [3] was “inactive” and the MIC (Escherichia coli [5]) was 6.6 µg/mL (≈ 29.3 µM).
In the case of S=C1SCCN1Cc1cccnc1, the IC50 [1] is reported as over 100 µM, the IC50 (Plasmodium falciparum) is reported as 73.4 µM and the Activity [2] is reported as “inactive”. For the same molecule, the Activity [3] was “inactive”.
For O=C1SCCN1Cc1ccccc1, the IC50 [1] was 13.7 µM, the IC50 (Plasmodium falciparum) was 90.9 µM and the Activity [2] was “inactive”. The Activity [3] was “inactive”.
For O=C1N(Cc2ccc(Oc3ccc(C4CCCC4)cc3)cc2)CCS1(=O)=O, the IC50 [1] was 2.4 µM, the IC50 (Plasmodium falciparum) was 10.8 µM and the Activity [2] was “inactive”. For the same molecule, the Activity [3] was “inactive”.
